According to PMC6413231, “o-Vanillin Derived Schiff Bases and Their Organotin(IV) Compounds: Synthesis, Structural Characterisation, In-Silico Studies and Cytotoxicity” (International Journal of Molecular Sciences, 2019):

Assays:
[1] = test system: BE2-C (neuroblastoma) cancer cells; assay: MTT growth inhibition assay, BE2-C; type: cell-based; details: 72 h, ± standard error, read-out: Growth Inhibition Concentration, GI50
Method: The Schiff bases and their organotin(IV) compounds were screened for in vitro cytotoxicity against a panel of 12 cancer cell lines: EJ-28 (muscle invasive bladder), RT-112 (minimum-invasive bladder), HT29 (colon), U87 and SJ-G2 (glioblastoma), MCF-7 (breast), A2780 (ovarian), H460 (lung), A431 (skin), DU145 (prostate), BE2-C (neuroblastoma), MIA (pancreatic) and one normal breast cell line (MCF-10A) using the MTT metabolic assay (Figure 6). After 72 h of incubation, a dose-dependent […] effect towards the cancer cell lines was measured at very low micromolar (µM) concentrations of the compounds. The growth inhibition concentration of the Schiff bases and their organotin(IV) compounds required to inhibit 50% cell proliferation relative to the cells that were treated with DMSO (control) are given in Table 2. The stability of these compounds was assessed in DMSO as well as in a mixture of DMSO-H2O. The absorbance obtained from UV-vis spectroscopy analysis was monitored for 72 h, and an unchanged pattern in the spectra was indicative that the compounds were stable in both the solvent systems tested.
For HT29 (colon), U87 and SJ-G2 (glioblastoma), MCF-7 (breast), A2780 (ovarian), H460 (lung), A431 (skin), Du145 (prostate), BE2-C (neuroblastoma), MIA (pancreas) cell lines and one normal breast cell line, MCF-10A (normal breast), the MTT assays were performed using the following method:
Stock solutions were prepared as follows and stored at −20 °C: Trial compounds were stored as 10 mM solutions in DMSO. All cell lines were cultured in a humidified atmosphere 5% CO2 at 37 °C. The cancer cell lines were maintained in Dulbecco’s modified Eagle’s medium (DMEM) (Trace Biosciences) supplemented with 10% foetal bovine serum, 10 mM sodium bicarbonate, penicillin (100 IU/mL), streptomycin (100 μg/mL) and glutamine (4 mM). The normal cell line, MCF-10A was cultured in DMEM:F12 (1:1) cell culture media, 5% heat inactivated horse serum, supplemented with penicillin (50 IU/mL), streptomycin (50 μg/mL), 20mM Hepes, L-glutamine (2 mM), epidermal growth factor (20 ng/mL), hydrocortisone (500 ng/mL), cholera toxin (100 ng/mL) and insulin (10 μg/mL).
Cells in logarithmic growth were transferred to 96-well plates. Cytotoxicity was determined by plating cells in duplicate in 100 μL medium at a density of 2500–4000 cells/well. On day 0 (24 h after plating), when the cells were in logarithmic growth, 100 μL medium, with or without the test agent, was added to each well. After 72 h drug exposure, growth inhibitory effects were evaluated using the MTT (3-[4,5-dimethylthiazol-2-yl]-2,5-diphenyltetrazolium bromide) assay and absorbance read at 540 nm. Percentage growth inhibition was determined at a fixed drug concentration of 25 μM. A value of 100% was indicative of complete cell growth inhibition. Those analogues showing appreciable percentage growth inhibition underwent further dose-response analysis allowing for the calculation of a GI50 value. This value is the drug concentration at which cell growth is 50% inhibited based on the difference between the optical density values on day 0 and those at the end of drug exposure.

RT-112 cells = assay: Intracellular ROS measurement (DCFH-DA); type: cell-based, human; details: 24 h, DMSO as control
From the text: Two compounds with the most promising bioactivity, Ph2Sn(S2MoVa) and Ph2Sn(S4MoVa), were selected for further cell apoptosis studies, in order to evaluate the primary damage to biological macromolecules through redox reactions, particularly via formation of ROS [68]. ROS are highly reactive molecules/radicals (O2, O2^•, H2O2, HO^•) that are continuously generated during aerobic metabolism, but when in excessive amounts, can lead to protein and DNA oxidation, protein cross-linking and cell death. Estimation of the levels of ROS in cell culture is an important step towards better understanding the mechanisms that lead to cell death or disease processes. […] ROS production was measured using the ROS-detecting fluorescent dye DCFH-DA and DMSO was used as a control. Both compounds were able to induce ROS production in RT-112 cell lines after 24 h.
Intracellular ROS measurements were used to assess antioxidant or ROS activity. Measurements were performed using a fluorescence plate reader following to the procedure outlines in the ROS detection kit (OxiSelect™). […] The cells were then read on a standard Infinite M200 fluorescence microplate reader (Tecan, Männedorf, Switzerland). The ROS or antioxidant content in unknown samples was determined by comparison with the predetermined DCF standard curve.

Row | Substance | GI50 [1] [nM] | ROS generation (RT-112 cells)
1 | Diphenyltin(IV) [Ph2Sn(S2MoVa), Diphenyltin(IV) [S-2-Methybenzyl-β-N-(2-hydroxy-3-methoxybenzylmethylene) dithiocarbazate]] | 470 ± 50 | stimulated ROS generation
2 | Diphenyltin(IV) [Ph2Sn(S4MoVa), Diphenyltin(IV) [S-4-Methybenzyl-β-N-(2-hydroxy-3-methoxybenzylmethylene) dithiocarbazate]] | 530 ± 10 | stimulated ROS generation
